The record followed here is patent US9125913B2, “Bcl-2-selective apoptosis-inducing agents for the treatment of cancer and immune diseases” (AbbVie Inc., priority 2008, dated 2015).

Each structure is given as a SMILES string.

This assay has as its system GST-Bcl-2. Briefly: TR-FRET binding assay, Bcl-2. To be noted: TR-FRET Ki values. In outline: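 Compounds serially diluted in DMSO from 50 μM (2× starting concentration, 10% DMSO), mixed with GST-tagged protein, F-Bak peptide probe and Tb-labeled antibody, incubated 3 h at room temperature.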
On to `CC1(C)CCC(CN2CCN(c3ccc(C(=O)NS(=O)(=O)c4ccc(NCCCN5CCCC5=O)c([N+](=O)[O-])c4)c(Oc4ccc5[nH]ccc5c4)c3)CC2)=C(c2ccc(Cl)cc2)C1` [EXAMPLE 374, 4-(4-{[2-(4-chlorophenyl)-4,4-dimethylcyclohex-1-en-1-yl]methyl}piperazin-1-yl)-2-(1H-indol-5-yloxy)-N-[(3-nitro-4-{[3-(2-oxopyrrolidin-1-yl)propyl]amino}phenyl)sulfonyl]benzamide], for which the “Binding selectivity ratio (Bcl-XL Ki/Bcl-2 Ki)” value (“Binding selectivity ratio” for short) is above 291.2.
With `CC1(C)CCC(CN2CCN(c3ccc(C(=O)NS(=O)(=O)c4cnc(OCCN5CCOCC5)c(C#N)c4)c(Oc4cccc5[nH]ccc45)c3)CC2)=C(c2ccc(Cl)cc2)C1` [EXAMPLE 392, 4-(4-{[2-(4-chlorophenyl)-4,4-dimethylcyclohex-1-en-1-yl]methyl}piperazin-1-yl)-N-{[5-cyano-6-(2-morpholin-4-ylethoxy)pyridin-3-yl]sulfonyl}-2-(1H-indol-4-yloxy)benzamide] the figure was 320.2; with `CC1(C)CCC(CN2CCN(c3ccc(C(=O)NS(=O)(=O)c4cnc(OCC5(F)CCN(C(CF)CF)CC5)c(C(F)(F)F)c4)c(Oc4cccc5[nH]ncc45)c3)CC2)=C(c2ccc(Cl)cc2)C1` [EXAMPLE 459, 4-(4-{[2-(4-chlorophenyl)-4,4-dimethylcyclohex-1-en-1-yl]methyl}piperazin-1-yl)-N-{[6-({4-fluoro-1-[2-fluoro-1-(fluoromethyl)ethyl]piperidin-4-yl}methoxy)-5-(trifluoromethyl)pyridin-3-yl]sulfonyl}-2-(1H-indazol-4-yloxy)benzamide], 541.58.
Next, `CC1(C)CCC(CN2CCN(c3ccc(C(=O)NS(=O)(=O)c4ccc(NCCC(F)(F)F)c([N+](=O)[O-])c4)c(Oc4ccc5[nH]ccc5c4)c3)CC2)=C(c2ccc(Cl)cc2)C1` [EXAMPLE 324, 4-(4-{[2-(4-chlorophenyl)-4,4-dimethylcyclohex-1-en-1-yl]methyl}piperazin-1-yl)-2-(1H-indol-5-yloxy)-N-({3-nitro-4-[(3,3,3-trifluoropropyl)amino]phenyl}sulfonyl)benzamide]: above 445.7; `CC1(C)CCC(CN2CCN(c3ccc(C(=O)NS(=O)(=O)c4ccc(NC5CCCCC5N)c([N+](=O)[O-])c4)c(Oc4ccc5[nH]ccc5c4)c3)CC2)=C(c2ccc(Cl)cc2)C1` (stereo not shown) [EXAMPLE 208, N-({4-[(2-aminocyclohexyl)amino]-3-nitrophenyl}sulfonyl)-4-(4-{[2-(4-chlorophenyl)-4,4-dimethylcyclohex-1-en-1-yl]methyl}piperazin-1-yl)-2-(1H-indol-5-yloxy)benzamide]: above 1120.6; `CC1(C)CCC(CN2CCN(c3ccc(C(=O)NS(=O)(=O)c4ccc(OCC5CCOCC5)c(C(N)=O)c4)c(Oc4ccc5[nH]ccc5c4)c3)CC2)=C(c2ccc(Cl)cc2)C1` [EXAMPLE 357, N-{[3-(aminocarbonyl)-4-(tetrahydro-2H-pyran-4-ylmethoxy)phenyl]sulfonyl}-4-(4-{[2-(4-chlorophenyl)-4,4-dimethylcyclohex-1-en-1-yl]methyl}piperazin-1-yl)-2-(1H-indol-5-yloxy)benzamide]: above 493.9.
With `CC(C)(C)c1ccc(CN2CCN(c3ccc(C(=O)NS(=O)(=O)c4ccc(NC5CCN(C6CCOCC6)CC5)c([N+](=O)[O-])c4)c(Oc4ccc5[nH]ccc5c4)c3)CC2)c(-c2ccc(Cl)cc2)c1` [EXAMPLE 359, 4-{4-[(5-tert-butyl-4′-chloro-1,1′-biphenyl-2-yl)methyl]piperazin-1-yl}-2-(1H-indol-5-yloxy)-N-({3-nitro-4-[(1-tetrahydro-2H-pyran-4-ylpiperidin-4-yl)amino]phenyl}sulfonyl)benzamide] the figure was above 49.0.
On to `CN(C)CC[C@H](Nc1ccc(S(=O)(=O)NC(=O)c2ccc(N3CCN(Cc4ccccc4-c4ccc(Cl)cc4)CC3)cc2Oc2ccccc2)cc1[N+](=O)[O-])c1cccs1` [Example 161, 4-{4-[(4′-chloro-1,1′-biphenyl-2-yl)methyl]piperazin-1-yl}-N-[(4-{[(1S)-3-(dimethylamino)-1-thien-2-ylpropyl]amino}-3-nitrophenyl)sulfonyl]-2-phenoxybenzamide], for which the “Binding selectivity ratio” value is listed as above 386.0.
Next, `CN(C)CC(=O)N1CCO[C@H](CNc2ccc(S(=O)(=O)NC(=O)c3ccc(N4CCN(CC5=C(c6ccc(Cl)cc6)CC(C)(C)CC5)CC4)cc3Oc3cccc4[nH]cnc34)cc2[N+](=O)[O-])C1` [EXAMPLE 437, 2-(1H-benzimidazol-4-yloxy)-4-(4-{[2-(4-chlorophenyl)-4,4-dimethylcyclohex-1-en-1-yl]methyl}piperazin-1-yl)-N-{[4-({[(2R)-4-(N,N-dimethylglycyl)morpholin-2-yl]methyl}amino)-3-nitrophenyl]sulfonyl}benzamide]: 51.4.
Next, `O=C(NS(=O)(=O)c1ccccc1OCCN1CCCCC1)c1ccc(N2CCN(Cc3ccccc3-c3ccc(Cl)cc3)CC2)cc1Oc1ccccc1` [Example 32, 4-{4-[(4′-chloro-1,1′-biphenyl-2-yl)methyl]piperazin-1-yl}-2-phenoxy-N-{[2-(2-piperidin-1-ylethoxy)phenyl]sulfonyl}benzamide]: above 10.8; `CN(C)CCCCNc1ccc(S(=O)(=O)NC(=O)c2ccc(N3CCN(Cc4ccccc4-c4ccc(Cl)cc4)CC3)cc2Oc2ccccc2)cc1[N+](=O)[O-]` [Example 156, 4-{4-[(4′-chloro-1,1′-biphenyl-2-yl)methyl]piperazin-1-yl}-N-[(4-{[4-(dimethylamino)butyl]amino}-3-nitrophenyl)sulfonyl]-2-phenoxybenzamide]: 53.1.
Consider `O=C(NS(=O)(=O)c1ccc(OCC2CCOCC2)c([N+](=O)[O-])c1)c1ccc(N2CCN(Cc3ccc(C(F)(F)F)cc3-c3ccc(Cl)cc3)CC2)cc1Oc1ccc2[nH]ccc2c1` [EXAMPLE 340, 4-(4-{[4′-chloro-5-(trifluoromethyl)-1,1′-biphenyl-2-yl]methyl}piperazin-1-yl)-2-(1H-indol-5-yloxy)-N-{[3-nitro-4-(tetrahydro-2H-pyran-4-ylmethoxy)phenyl]sulfonyl}benzamide], for which the “Binding selectivity ratio” value is given as above 86.9.
With `O=C(NS(=O)(=O)c1ccc(NCC2CCOCC2)c([N+](=O)[O-])c1)c1ccc(N2CCN(Cc3cc(OCCO)ccc3-c3ccc(Cl)cc3)CC2)cc1Oc1cccc2[nH]ccc12` [EXAMPLE 213, 4-(4-{[4′-chloro-4-(2-hydroxyethoxy)-1,1′-biphenyl-2-yl]methyl}piperazin-1-yl)-2-(1H-indol-4-yloxy)-N-({3-nitro-4-[(tetrahydro-2H-pyran-4-ylmethyl)amino]phenyl}sulfonyl)benzamide] the figure was above 66000.
With `O=C(NS(=O)(=O)c1ccc(NCC2CCOCC2)c([N+](=O)[O-])c1)c1ccc(N2CCN(CC3=C(c4ccc(Cl)cc4)CCC(O)C3)CC2)cc1Oc1ccc2[nH]ccc2c1` (stereo not shown) [EXAMPLE 248, 4-(4-{[2-(4-chlorophenyl)-5-hydroxycyclohex-1-en-1-yl]methyl}piperazin-1-yl)-2-(1H-indol-5-yloxy)-N-({3-nitro-4-[(tetrahydro-2H-pyran-4-ylmethyl)amino]phenyl}sulfonyl)benzamide] the figure was 12079.6; with `O=C(NS(=O)(=O)c1ccc(NCC2CCOCC2)c([N+](=O)[O-])c1)c1ccc(N2CCN(Cc3ccc(C(F)(F)F)cc3-c3ccc(Cl)cc3)CC2)cc1Oc1ccc2[nH]ccc2c1` [EXAMPLE 339, 4-(4-{[4′-chloro-5-(trifluoromethyl)-1,1′-biphenyl-2-yl]methyl}piperazin-1-yl)-2-(1H-indol-5-yloxy)-N-({3-nitro-4-[(tetrahydro-2H-pyran-4-ylmethyl)amino]phenyl}sulfonyl)benzamide], above 46.7.
On to `CC1(C)CCC(CN2CCN(c3ccc(C(=O)NS(=O)(=O)c4ccc(NC[C@H]5CC[C@@H](O)CC5)c([N+](=O)[O-])c4)c(Oc4ccc5[nH]ccc5c4)c3)CC2)=C(c2ccc(Cl)cc2)C1` [EXAMPLE 312, Cis-4-(4-{[2-(4-chlorophenyl)-4,4-dimethylcyclohex-1-en-1-yl]methyl}piperazin-1-yl)-N-[(4-{[(4-hydroxycyclohexyl)methyl]amino}-3-nitrophenyl)sulfonyl]-2-(1H-indol-5-yloxy)benzamide], for which the “Binding selectivity ratio” value is above 1941.2.
Next, `CC1(C)CCC(CN2CCN(c3ccc(C(=O)NS(=O)(=O)c4ccc(N[C@H]5CC[C@H](N6CCOCC6)CC5)c([N+](=O)[O-])c4)c(Oc4cccc5[nH]cnc45)c3)CC2)=C(c2ccc(Cl)cc2)C1` [EXAMPLE 452, Trans-2-(1H-benzimidazol-4-yloxy)-4-(4-{[2-(4-chlorophenyl)-4,4-dimethylcyclohex-1-en-1-yl]methyl}piperazin-1-yl)-N-({4-[(4-morpholin-4-ylcyclohexyl)amino]-3-nitrophenyl}sulfonyl)benzamide]: 600.39.
With `O=C(NS(=O)(=O)c1ccc(NCC2CCOCC2)c(S(=O)(=O)C(F)(F)F)c1)c1ccc(N2CCN(Cc3cc(OCCN4CCOCC4)ccc3-c3ccc(Cl)cc3)CC2)cc1Oc1ccccc1` [Example 117, 4-(4-{[4′-chloro-4-(2-morpholin-4-ylethoxy)-1,1′-biphenyl-2-yl]methyl}piperazin-1-yl)-2-phenoxy-N-({4-[(tetrahydro-2H-pyran-4-ylmethyl)amino]-3-[(trifluoromethyl)sulfonyl]phenyl}sulfonyl)benzamide] the figure was above 287.1.
With `CC1(C)CCC(CN2CCN(c3ccc(C(=O)NS(=O)(=O)c4ccc(C(=O)NCC5CCOCC5)cc4)c(Oc4ccc5[nH]ccc5c4)c3)CC2)=C(c2ccc(Cl)cc2)C1` [EXAMPLE 308, 4-(4-{[2-(4-chlorophenyl)-4,4-dimethylcyclohex-1-en-1-yl]methyl}piperazin-1-yl)-2-(1H-indol-5-yloxy)-N-[(4-{[(tetrahydro-2H-pyran-4-ylmethyl)amino]carbonyl}phenyl)sulfonyl]benzamide] the figure was above 11.5.
